In brackets after ≈: the same amount, converted by molar mass.
Assays:
Klebsiella aerogenes = experiment: Antimicrobial activity against Enterobacter aerogenes by cup-plate agar diffusion method; type: functional
Leishmania major = experiment: Antiprotozoal activity against Leishmania major promastigote forms; type: functional, organism-based
Plasmodium falciparum [1] = experiment: Antimalarial activity against Plasmodium falciparum asexual blood stage forms; type: functional, organism-based
Plasmodium falciparum [2] = experiment: Antimalarial activity against CQ-resistant Plasmodium falciparum W2; type: functional, organism-based
Staphylococcus aureus [3] = experiment: Antimicrobial activity against Staphylococcus aureus by cup-plate agar diffusion method; type: functional
[4] = Anticancer activity against human HSC3 cells; type: functional, cell-based; conditions: HSC-3
Plasmodium falciparum [5] = experiment: Antimalarial activity against Plasmodium falciparum K1; type: functional, organism-based
Candida albicans = experiment: Antimicrobial activity against Candida albicans; type: functional
Escherichia coli [6] = experiment: Antimicrobial activity against Escherichia coli; type: functional
Aspergillus niger [7] = experiment: Antimicrobial activity against Aspergillus niger at 50 ug/mL; type: functional; conditions: read-out: IZ
Rattus norvegicus [8] = experiment: Inhibition of inflammation in rat carrageenan-induced rat acute paw edema model; type: functional
Rattus norvegicus [9] = experiment: Inhibition of inflammation in rat carrageenan-induced rat hind paw edema model; type: functional
Staphylococcus aureus [10] = experiment: Antimicrobial activity against Staphylococcus aureus; type: functional
Rattus norvegicus [11] = organism: Rattus norvegicus; experiment: Inhibition of inflammation in rat cotton pellet-induced granuloma model; type: functional
[12] = Antioxidant activity assessed as […] free radical scavenging activity; type: physicochemical
Escherichia coli [13] = experiment: Antimicrobial activity against Escherichia coli at 50 ug/mL; type: functional; conditions: read-out: IZ
Bacillus subtilis [14] = experiment: Antimicrobial activity against Bacillus subtilis at 50 ug/mL; type: functional; conditions: read-out: IZ
Bacillus pumilus = experiment: Antimicrobial activity against Bacillus pumilus at 50 ug/mL; type: functional; conditions: read-out: IZ
Bacillus subtilis [15] = experiment: Antimicrobial activity against Bacillus subtilis; type: functional
Penicillium chrysogenum = experiment: Antimicrobial activity against Penicillium chrysogenum; type: functional
Micrococcus luteus = experiment: Antimicrobial activity against Micrococcus luteus; type: functional
[16] = system: Staphylococcus epidermidis; experiment: Antimicrobial activity against Staphylococcus epidermidis; type: functional
MDA-MB-231 = experiment: Anticancer activity against human MDA-MB-231 cells; type: functional, cell-based
Bacillus = experiment: Antimicrobial activity against Bacillus coccus by cup-plate agar diffusion method; type: functional
Aspergillus niger [17] = experiment: Antimicrobial activity against Aspergillus niger by cup-plate agar diffusion method; type: functional

With `COc1ccc(C(=O)/C=C/c2c(-c3ccc(Br)cc3)nc3ccccn23)cc1` the “inhibition zone (IZ)” value (Klebsiella aerogenes) was 19 mm.

With `COc1ccc2c(c1)C=C(C(=O)/C=C/c1ccc(Cl)c(Cl)c1)CO2` the IC50 (Leishmania major; Leishmania major) was less than 1 µM.

In the case of `COc1ccc(/C=C/C(=O)c2ccc(-n3cnc4ccccc43)cc2)c(OC)c1`, the IC50 (Plasmodium falciparum [1]) is reported as 1.1 µg/mL (≈ 2.86 µM).

For MEGLUMINE ANTIMONATE, the IC50 (Leishmania major) was less than 82 µM.

`COc1ccc(/C=C/C(=O)c2ccccc2)cc1S(=O)(=O)N1CCOCC1` gave an IC50 (Plasmodium falciparum [2]) of 2.06 µM.

With `O=C(/C=C/c1c(-c2ccc(Br)cc2)nc2ccccn12)c1ccc(Cl)cc1` the “inhibition zone (IZ)” value (Staphylococcus aureus [3]) was 19 mm.

Compound `COc1cc(O)c(C(=O)/C=C/c2ccccc2)c(OC)c1` [FLAVOKAWAIN B] has an IC50 [4] of 4.9 µg/mL (≈ 17.2 µM).

Work on `COc1ccc(/C=C/C(=O)c2c(O)cccc2O)cc1` yielded an IC50 (Plasmodium falciparum [5]) of 7.4 µM.

In the case of `O=C(/C=C/c1ccccc1)N1N=C(c2ccc(Cl)cc2)CC1c1c2ccccc2cc2ccccc12` (centres undefined), the “inhibition zone (IZ)” value (Candida albicans) is reported as 12 mm and the “inhibition zone (IZ)” value (Escherichia coli [6]) is reported as 22 mm.

Compound `O=C(/C=C/c1cccc2ccccc12)c1ccc(Cl)cc1Cl` has a zone of inhibition at 50 µg/mL (Aspergillus niger [7]) of 12 mm.

With `Cc1nc2ccc(Cl)cc2c(-c2ccccc2)c1C(=O)/C=C/c1ccco1` the “inhibition (INH)” value (Rattus norvegicus [8]) was 81.78%.

For `O=C(/C=C/c1ccccc1)c1nn(-c2ccccc2)c(-c2ccccc2)c1S(=O)(=O)c1ccccc1`, the “inhibition (INH)” value (Rattus norvegicus [9]) was 83.77%.

`O=C(/C=C/c1ccc(O)cc1)c1ccc(O)cc1O` [ISOLIQUIRITIGENIN] gave an MIC (Staphylococcus aureus [10]) of 15.6 µg/mL (≈ 60.9 µM).

In the case of `COc1ccc2c(c1)C=C(/C=C/C(=O)c1ccc(Cl)c(Cl)c1)CO2`, the IC50 (Leishmania major; Leishmania major) is reported as less than 1 µM.

For `O=C(/C=C/c1ccc(F)cc1)c1ccc(O)cc1`, the “inhibition (INH)” value (Rattus norvegicus [11]) was 36.8%.

With `C=CCc1ccc(/C=C/C(=O)c2cc(C)ccc2O)cc1O` the “inhibition (INH)” value [12] was 89.64%.

`COc1ccc(/C=C/C(=O)c2ccc(Cl)cc2Cl)cc1` showed a zone of inhibition at 50 µg/mL (Escherichia coli [13]) of 15 mm, a zone of inhibition at 50 µg/mL (Bacillus subtilis [14]) of 13 mm and a zone of inhibition at 50 µg/mL (Bacillus pumilus) of 8 mm.

In the case of `C[C@]12CC[C@H]3[C@@H](CC=C4CC(O)CC[C@@]43C)[C@@H]1CC[C@@H]2C(=O)/C=C/c1ccccc1` (some centres undefined), the “inhibition zone (IZ)” value (Bacillus subtilis [15]) is reported as 19 mm and the “inhibition zone (IZ)” value (Penicillium chrysogenum) is reported as 10 mm.

For `COc1ccc(/C=C/C(=O)c2ccc(OC)c(CC=C(C)C)c2O)cc1`, the MIC (Micrococcus luteus) was 2000 µg/mL (≈ 5670 µM), the MIC (Bacillus subtilis [15]; Bacillus subtilis) was 2000 µg/mL (≈ 5670 µM) and the MIC [16] was 2000 µg/mL (≈ 5670 µM).

`O=C(/C=C/c1cccc(Br)c1)C1=Cc2cc(Cl)ccc2OC1` gave an IC50 (MDA-MB-231) of 7.02 µM.

`C=CC(C)(C)c1cc(/C=C/C(=O)c2ccc(O)cc2)c(OC)cc1O` [LICOAGROCHACONE A] gave an IC50 (Plasmodium falciparum [1]) of 1.43 µg/mL (≈ 4.23 µM).

With `Cc1ccc(C(=O)/C=C/c2c(-c3ccc(Br)cc3)nc3ccccn23)c(O)c1` the “inhibition zone (IZ)” value (Bacillus) was 19 mm and the “inhibition zone (IZ)” value (Aspergillus niger [17]) was 20 mm.
